Our source for the Ki and inhibition values is article PMC5830761 (Royal Society Open Science, 2018).

The target of experiment [1] is T1, human A1 receptors (Homo sapiens, UniProt P30542).
T1 sequence (P30542 1-326): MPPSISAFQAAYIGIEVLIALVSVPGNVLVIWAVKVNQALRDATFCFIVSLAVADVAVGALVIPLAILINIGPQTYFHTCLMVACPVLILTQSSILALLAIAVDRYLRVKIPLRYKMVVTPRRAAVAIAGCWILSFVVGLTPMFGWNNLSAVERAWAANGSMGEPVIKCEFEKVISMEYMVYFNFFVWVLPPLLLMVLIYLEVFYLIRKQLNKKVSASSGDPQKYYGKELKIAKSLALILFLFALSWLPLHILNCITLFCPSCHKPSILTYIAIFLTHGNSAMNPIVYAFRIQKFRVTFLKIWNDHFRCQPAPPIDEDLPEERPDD
In words: Radioligand binding to human A1 AR ([3H]CCPA), CHO cell membranes. Conditions: mean ± SEM; for Ki: CHO cells expressing human A1AR, radioligand [3H]CCPA, read-out: Ki hA1AR. The method, then: (§1) CHO (Chinese hamster ovary) cells expressing the recombinant human ARs^2 were cultured in DMEM supplemented with 10% fetal bovine serum, 100 units/mL penicillin, 100 µg/mL streptomycin, 2 µmol/mL glutamine, and 800 µg/mL geneticin. Cells were harvested by trypsinization. After homogenization and suspension, cells were centrifuged at 500 g for 10 min, and the pellet was resuspended in 50 mM Tris-HCl buffer (pH 8.0) containing 10 mM MgCl2, 1 mM EDTA, and 0.1 mg/mL CHAPS. The suspension was homogenized with an electric homogenizer for 10 s and was then recentrifuged at 20000 g for 20 min at 4 °C. […] The protein concentration was measured using the Bradford assay.^3
(§2) Human A1 and A2A receptors: For binding to human A1 receptors, [^3H]CCPA (1 nM) was incubated with membranes (40 µg/tube) from CHO cells stably expressing human A1 receptors at 25 °C for 60 min in 50 mM Tris-HCl buffer (pH 7.4; MgCl2, 10 mM) in a total assay volume of 200 µL. Nonspecific binding was determined using 10 µM of CPA. For human A2A receptor binding, membranes (20 µg/tube) from HEK-293 cells stably expressing human A2A receptors were incubated with 15 nM [^3H]CGS21680 at 25 °C for 60 min in 200 µL of 50 mM Tris-HCl, pH 7.4, containing 10 mM MgCl2. NECA (10 µM) was used to define nonspecific binding. Reaction was terminated by filtration with GF/B filters.

Experiment [2] addresses T2, human A2A receptors (Homo sapiens, UniProt P29274).
T2 construct: expressed in transfected cells
In words: Radioligand binding to human A2A AR ([3H]CGS21680). Particulars: cells expressing human A2AAR; radioligand [3H]CGS21680; mean ± SEM; read-out: Ki hA2AAR. The method, then: as §1, §2

For experiment [3], the target named is T3, human A3 receptor (Homo sapiens, UniProt P0DMS8).
T3 construct: expressed in transfected cells; host or cells: CHO cells, membranes
T3 sequence (P0DMS8 1-318): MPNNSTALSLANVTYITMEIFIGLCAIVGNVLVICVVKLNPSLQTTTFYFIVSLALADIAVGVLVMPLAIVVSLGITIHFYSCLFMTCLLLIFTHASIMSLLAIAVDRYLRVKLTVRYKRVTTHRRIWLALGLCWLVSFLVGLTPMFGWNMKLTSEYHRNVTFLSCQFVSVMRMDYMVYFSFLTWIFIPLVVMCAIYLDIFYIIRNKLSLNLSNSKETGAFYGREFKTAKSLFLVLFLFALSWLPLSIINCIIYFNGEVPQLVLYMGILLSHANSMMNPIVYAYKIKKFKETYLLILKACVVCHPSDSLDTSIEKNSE
In words: Competitive radioligand binding to human A3 AR ([125I]I-AB-MECA), CHO cell membranes. Conditions: CHO cells expressing human A3AR; radioligand [125I]I-AB-MECA; mean ± SEM; read-out: Ki hA3AR. The method, then:
CHO (Chinese hamster ovary) cells expressing the recombinant human ARs^2 were cultured in DMEM supplemented with 10% fetal bovine serum, 100 units/mL penicillin, 100 µg/mL streptomycin, 2 µmol/mL glutamine, and 800 µg/mL geneticin. Cells were harvested by trypsinization. After homogenization and suspension, cells were centrifuged at 500 g for 10 min, and the pellet was resuspended in 50 mM Tris-HCl buffer (pH 8.0) containing 10 mM MgCl2, 1 mM EDTA, and 0.1 mg/mL CHAPS. […] The protein concentration was measured using the Bradford assay.^3
Human A3 receptor: For competitive binding assay, each tube contained 100 µL of membrane suspension (20 µg protein), 50 µL of [^125I]I-AB-MECA (0.5 nM), and 50 µL of increasing concentrations of the nucleoside derivative in Tris-HCl buffer (50 mM, pH 7.4) containing 10 mM MgCl2 and 1 mM EDTA. Nonspecific binding was determined using 10 µM of Cl-IB-MECA in the buffer. The mixtures were incubated at 25 °C for 60 min. Binding reactions were terminated by filtration through Whatman GF/B filters under reduced pressure using a MT-24 cell harvester (Brandell, Gaithersburgh, MD). Filters were washed three times with 9 mL of ice-cold buffer. Radioactivity was determined in a Beckman 5500B γ-counter.

T2 sequence (P29274 whole entry): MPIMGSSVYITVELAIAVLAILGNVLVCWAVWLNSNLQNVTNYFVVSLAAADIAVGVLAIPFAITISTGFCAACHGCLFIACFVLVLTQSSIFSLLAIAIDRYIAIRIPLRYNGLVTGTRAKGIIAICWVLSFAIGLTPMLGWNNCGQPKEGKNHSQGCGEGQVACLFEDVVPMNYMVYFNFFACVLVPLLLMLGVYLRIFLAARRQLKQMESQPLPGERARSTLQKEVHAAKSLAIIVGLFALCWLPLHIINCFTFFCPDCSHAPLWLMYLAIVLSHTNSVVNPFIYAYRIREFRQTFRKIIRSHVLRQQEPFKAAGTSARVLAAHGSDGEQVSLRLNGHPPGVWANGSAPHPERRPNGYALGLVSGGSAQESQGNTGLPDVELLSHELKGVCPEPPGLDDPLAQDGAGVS

In general, Ki refers to the dissociation constant of the complex between target and ligand, obtained from inhibition or displacement. Consider `Nc1nc(OCCCc2cn(Cc3ccccc3)c3cc(Br)ccc23)nc2c1ncn2[C@@H]1O[C@H](CO)[C@@H](O)[C@H]1O` [compound 14, 2-(6"-Bromo-1"-Benzyl-3"-indolylpropoxy)adenosine], for which the Ki in experiment [1] stood at 152 ± 49 nM; in experiment [2], 371 ± 79 nM; in experiment [3], 491 ± 143 nM.
In general, inhibition refers to the share of the control response that was lost under treatment. On to `Cn1cc(CCOc2nc(N)c3ncn([C@@H]4O[C@H](CO)[C@@H](O)[C@H]4O)c3n2)c2ccc(Br)cc21` [compound 9], for which the inhibition at 10 µM in experiment [1] (at 10 µM, weak binding, corresponding to IC50 ≥ 10 µM, [3H]CCPA, read-out: % inhibition at 10 µM hA1AR) came to 47%. The Ki in experiment [2] is 2770 ± 500 nM; in experiment [3], 679 ± 149 nM.
Regarding `Cn1cc(CCCOc2nc(N)c3ncn([C@@H]4O[C@H](CO)[C@@H](O)[C@H]4O)c3n2)c2ccc(Br)cc21` [compound 13, 2-(6"-Bromo-1"-Methyl-3"-indolylpropoxy)adenosine], the inhibition constant (Ki) in experiment [1] stood at 230 ± 26 nM; in experiment [2] it was 262 ± 192 nM; in experiment [3], 177 ± 43 nM.
On to `Nc1nc(OCCc2cn(Cc3ccccc3)c3cc(Br)ccc23)nc2c1ncn2[C@@H]1O[C@H](CO)[C@@H](O)[C@H]1O` [compound 10], for which the Ki in experiment [1] came to 217 ± 57 nM; in experiment [2] it was 380 ± 81 nM; in experiment [3] it was 532 ± 144 nM.
